{"source": "patent US9149038B2", "about": "“4-amino-6-(heterocyclic)picolinates and 6-amino-2-(heterocyclic)pyrimidine-4-carboxylates and their use as herbicides” (Dow AgroSciences LLC, priority 2013, dated 2015)", "key": {"[1]": {"tested_on": "Key Broadleaf Weed and Crop Species", "assay": "Post-Emergent Test II: postemergent herbicidal activity, visual rating after 14 d (Table 7)", "type": "in vivo", "conditions": "post-emergence, 336 h; for pest or weed control at 35 g/ha: 35 g ai/ha; for pest or weed control at 70 g/ha: 70 g ai/ha; for pest or weed control at 140 g/ha: 140 g ai/ha", "method_in_brief": "(§1)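 Track-sprayed young seedlings (first/second true leaf) at 187 L/ha across a 2-fold rate series from the high rate down to 1/16×. Kept in greenhouse at 23-29° C day, subirrigated. Injury rated by eye after 14 d, 0 = no injury, 100 = complete kill.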"}, "[2]": {"tested_on": "Key Grass and Sedge Weeds as well as Grass Crops", "assay": "Post-Emergent Test II: postemergent herbicidal activity, visual rating after 14 d (Table 8)", "type": "in vivo", "conditions": "post-emergence, 336 h; for pest or weed control at 35 g/ha: 35 g ai/ha; for pest or weed control at 70 g/ha: 70 g ai/ha; for pest or weed control at 140 g/ha: 140 g ai/ha", "method_in_brief": "as §1"}, "[3]": {"conditions": "lambsquarters (Chenopodium album), read-out: Visual Growth Reduction (%) 14 Days After Application CHEAL"}, "[4]": {"conditions": "oilseed rape, canola (Brassica napus), read-out: Visual Growth Reduction (%) 14 Days After Application BRSNN"}, "[5]": {"conditions": "redroot pigweed (Amaranthus retroflexus), read-out: Visual Growth Reduction (%) 14 Days After Application AMARE"}, "[6]": {"conditions": "sunflower (Helianthus annuus), read-out: Visual Growth Reduction (%) 14 Days After Application HELAN"}, "[7]": {"conditions": "velvetleaf (Abutilon theophrasti), read-out: Visual Growth Reduction (%) 14 Days After Application ABUTH"}, "[8]": {"conditions": "wild poinsettia (Euphorbia heterophylla), read-out: Visual Growth Reduction (%) 14 Days After Application EPHHL"}, "[9]": {"conditions": "barnyardgrass (Echinochloa crus-galli), read-out: Visual Growth Reduction (%) 14 Days After Application ECHCG"}, "[10]": {"conditions": "giant foxtail (Setaria faberi), read-out: Visual Growth Reduction (%) 14 Days After Application SETFA"}, "[11]": {"conditions": "maize, corn (Zea mays), read-out: Visual Growth Reduction (%) 14 Days After Application ZEAMX"}, "[12]": {"conditions": "rice (Oryza sativa), read-out: Visual Growth Reduction (%) 14 Days After Application ORYSA"}, "[13]": {"conditions": "wheat, spring (Triticum aestivum), read-out: Visual Growth Reduction (%) 14 Days After Application TRZAS"}, "[14]": {"conditions": "yellow nutsedge (Cyperus esculentus), read-out: Visual Growth Reduction (%) 14 Days After Application CYPES"}}, "note": "Like-named read-outs stand apart in the source and are kept apart here."}
{"compound": "COc1c(N)nc(-c2ccc3c(c2F)OC(F)(F)O3)nc1C(=O)O", "note": "[Compound 66]", "values": [{"measurement": "pest or weed control at 35 g/ha", "setting": "[1]; [3]", "result": "45 to 59", "unit": "%"}, {"measurement": "pest or weed control at 70 g/ha", "setting": "[1]; [3]", "result": "85 to 94", "unit": "%"}, {"measurement": "pest or weed control at 140 g/ha", "setting": "[1]; [3]", "result": "95 to 100", "unit": "%"}, {"measurement": "pest or weed control at 35 g/ha", "setting": "[1]; [4]", "result": "60 to 74", "unit": "%"}, {"measurement": "pest or weed control at 70 g/ha", "setting": "[1]; [4]", "result": "75 to 84", "unit": "%"}, {"measurement": "pest or weed control at 140 g/ha", "setting": "[1]; [4]", "result": "85 to 94", "unit": "%"}, {"measurement": "pest or weed control at 35 g/ha", "setting": "[1]; [5]", "result": "95 to 100", "unit": "%"}, {"measurement": "pest or weed control at 70 g/ha", "setting": "[1]; [5]", "result": "95 to 100", "unit": "%"}, {"measurement": "pest or weed control at 140 g/ha", "setting": "[1]; [5]", "result": "95 to 100", "unit": "%"}, {"measurement": "pest or weed control at 35 g/ha", "setting": "[1]; [6]", "result": "75 to 84", "unit": "%"}, {"measurement": "pest or weed control at 70 g/ha", "setting": "[1]; [6]", "result": "85 to 94", "unit": "%"}, {"measurement": "pest or weed control at 140 g/ha", "setting": "[1]; [6]", "result": "95 to 100", "unit": "%"}, {"measurement": "pest or weed control at 35 g/ha", "setting": "[1]; [7]", "result": "75 to 84", "unit": "%"}, {"measurement": "pest or weed control at 70 g/ha", "setting": "[1]; [7]", "result": "75 to 84", "unit": "%"}, {"measurement": "pest or weed control at 140 g/ha", "setting": "[1]; [7]", "result": "85 to 94", "unit": "%"}, {"measurement": "pest or weed control at 35 g/ha", "setting": "[1]; [8]", "result": "95 to 100", "unit": "%"}, {"measurement": "pest or weed control at 70 g/ha", "setting": "[1]; [8]", "result": "95 to 100", "unit": "%"}, {"measurement": "pest or weed control at 140 g/ha", "setting": "[1]; [8]", "result": "95 to 100", "unit": "%"}, {"measurement": "pest or weed control at 35 g/ha", "setting": "[2]; [9]", "result": "95 to 100", "unit": "%"}, {"measurement": "pest or weed control at 70 g/ha", "setting": "[2]; [9]", "result": "95 to 100", "unit": "%"}, {"measurement": "pest or weed control at 140 g/ha", "setting": "[2]; [9]", "result": "95 to 100", "unit": "%"}, {"measurement": "pest or weed control at 35 g/ha", "setting": "[2]; [10]", "result": "75 to 84", "unit": "%"}, {"measurement": "pest or weed control at 70 g/ha", "setting": "[2]; [10]", "result": "75 to 84", "unit": "%"}, {"measurement": "pest or weed control at 140 g/ha", "setting": "[2]; [10]", "result": "85 to 94", "unit": "%"}, {"measurement": "pest or weed control at 35 g/ha", "setting": "[2]; [11]", "result": "60 to 74", "unit": "%"}, {"measurement": "pest or weed control at 70 g/ha", "setting": "[2]; [11]", "result": "60 to 74", "unit": "%"}, {"measurement": "pest or weed control at 140 g/ha", "setting": "[2]; [11]", "result": "75 to 84", "unit": "%"}, {"measurement": "pest or weed control at 35 g/ha", "setting": "[2]; [12]", "result": "30 to 44", "unit": "%"}, {"measurement": "pest or weed control at 70 g/ha", "setting": "[2]; [12]", "result": "30 to 44", "unit": "%"}, {"measurement": "pest or weed control at 140 g/ha", "setting": "[2]; [12]", "result": "30 to 44", "unit": "%"}, {"measurement": "pest or weed control at 35 g/ha", "setting": "[2]; [13]", "result": "45 to 59", "unit": "%"}, {"measurement": "pest or weed control at 70 g/ha", "setting": "[2]; [13]", "result": "60 to 74", "unit": "%"}, {"measurement": "pest or weed control at 140 g/ha", "setting": "[2]; [13]", "result": "60 to 74", "unit": "%"}, {"measurement": "pest or weed control at 35 g/ha", "setting": "[2]; [14]", "result": "0 to 29", "unit": "%"}, {"measurement": "pest or weed control at 70 g/ha", "setting": "[2]; [14]", "result": "95 to 100", "unit": "%"}, {"measurement": "pest or weed control at 140 g/ha", "setting": "[2]; [14]", "result": "95 to 100", "unit": "%"}]}
